Among the data in ChEMBL document CHEMBL4017450, “Synthesis and carbonic anhydrase inhibition of a series of SLC-0111 analogs” (Bioorg Med Chem, 2017) are Ki values, retold here.

Sequence of Carbonic anhydrase 12 (O43570 whole entry): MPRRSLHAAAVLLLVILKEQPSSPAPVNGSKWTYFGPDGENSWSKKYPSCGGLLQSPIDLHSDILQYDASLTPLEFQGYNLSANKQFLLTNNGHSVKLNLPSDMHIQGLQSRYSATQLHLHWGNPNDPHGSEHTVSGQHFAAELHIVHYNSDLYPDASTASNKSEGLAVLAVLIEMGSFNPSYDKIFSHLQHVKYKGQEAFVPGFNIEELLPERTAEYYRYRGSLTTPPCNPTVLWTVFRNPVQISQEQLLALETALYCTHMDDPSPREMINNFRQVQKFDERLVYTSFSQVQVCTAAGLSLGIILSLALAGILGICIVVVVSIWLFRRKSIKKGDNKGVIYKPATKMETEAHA

The first assay concerns the target Carbonic anhydrase 12 (Homo sapiens, UniProt O43570). Kind of assay: Inhibition of human recombinant carbonic anhydrase 12 preincubated for 15 mins prior to testing measured for 10 to 100 secs by phenol red-based stopped-flow CO2 hydration assay.
`NS(=O)(=O)c1ccc(NC(=O)Nc2cccc(Cl)c2)cc1`: the Ki – broadly, the equilibrium dissociation constant of an inhibitor or competing ligand from its target – worked out at 8.5 nM.

For another assay, the target named is Carbonic anhydrase 2 (Homo sapiens, UniProt P00918). The assay is described as follows: Inhibition of human recombinant carbonic anhydrase 2 preincubated for 15 mins prior to testing measured for 10 to 100 secs by phenol red-based stopped-flow CO2 hydration assay.
In the case of `NS(=O)(=O)c1ccc(NC(=O)Nc2cccc(Cl)c2)cc1`, the Ki is 10 nM.

The next assay deals with Carbonic anhydrase 9 (Homo sapiens, UniProt Q16790).
Description: Inhibition of human recombinant carbonic anhydrase 9 preincubated for 15 mins prior to testing measured for 10 to 100 secs by phenol red-based stopped-flow CO2 hydration assay
The molecule `NS(=O)(=O)c1cccc(NC(=O)Nc2ccc(I)cc2)c1` displayed a Ki of 116 nM.
On the same count and under the same terms, in the case of `NS(=O)(=O)c1ccc(NC(=O)Nc2ccccc2F)cc1` it was 7.7 nM; in that of `NS(=O)(=O)c1ccc(NC(=O)Nc2cc(Cl)ccc2Cl)cc1`, 8.9 nM.
Same read-out and setting: in the case of `NS(=O)(=O)c1cccc(NC(=O)Nc2cccc([N+](=O)[O-])c2)c1` it was 154 nM; in that of `NS(=O)(=O)c1ccc(NC(=O)Nc2cc([N+](=O)[O-])ccc2Cl)cc1`, 8.2 nM; in that of `NS(=O)(=O)c1ccc(NC(=O)Nc2cc(C(F)(F)F)ccc2F)cc1`, 7.4 nM.
In turn, `NS(=O)(=O)c1ccc(NC(=O)Nc2ccc(F)cc2F)cc1` returned a Ki of 3.7 nM.
On the same count and under the same terms, then `CC(C)c1ccccc1NC(=O)Nc1cccc(S(N)(=O)=O)c1`, with 349 nM; and `NS(=O)(=O)c1ccc(NC(=O)Nc2ccc(F)c(F)c2F)cc1`, with 9.6 nM.
Consider `NS(=O)(=O)c1cccc(NC(=O)Nc2ccc(F)cc2)c1`, for which affinity was put at a Ki of 219 nM.
With `NS(=O)(=O)c1cccc(NC(=O)Nc2c(F)c(F)c(F)c(F)c2F)c1`, the Ki stood at 162 nM.
In turn, `NS(=O)(=O)c1ccc(NC(=O)Nc2cccc(Cl)c2)cc1` showed a Ki of 8.4 nM.
Regarding `NS(=O)(=O)c1ccc(NC(=O)Nc2ccc(Cl)cc2F)cc1`, the inhibition constant (Ki) worked out at 5.1 nM.
`NS(=O)(=O)c1ccc(NC(=O)Nc2cc(F)c(F)cc2F)cc1` registered a Ki of 7.6 nM.
`CC(=O)c1ccc(NC(=O)Nc2cccc(S(N)(=O)=O)c2)cc1` came in with an inhibition constant Ki of 178 nM.
